Some test systems named below: SN12C renal; HCT-15 colon; U251 CNS; SK-OV-3 ovarian; SK-MEL-5 melanoma; OVCAR-3 ovarian; OVCAR-5 ovarian; HOP-62 NSCLC; SF-268 CNS; A498 renal.
Assay in all cases: NCI anticancer screen, dose series, 48 h

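Five concentrations, 48 hours, 96-well plates. Here, GI50 denotes the concentration required for 50% inhibition of growth. Definition used: TGI = concentration required for complete inhibition of growth.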

For `COc1ccc(/C(C#N)=C/c2ccccc2OC)cc1`, the GI50 in the test on SN12C renal is 21.1 µM; in the test with HCT-15 colon, 6.25 µM; with U251 CNS, 4.63 µM; in the test on SK-OV-3 ovarian, 19.4 µM; in the test with SK-MEL-5 melanoma it was 9.25 µM; in the test with OVCAR-3 ovarian, 7.22 µM. In addition, the GI50 in the test on OVCAR-5 ovarian was 55.4 µM; in the test on HOP-62 NSCLC it was 19.9 µM; with SF-268 CNS, 35.5 µM; with A498 renal it was 5.37 µM. The TGI in the test on SN12C renal is above 100 µM; with HCT-15 colon, above 100 µM; with U251 CNS it was 78.4 µM; in the test on SK-OV-3 ovarian, above 100 µM; in the test with SK-MEL-5 melanoma it was above 100 µM; in the test on OVCAR-3 ovarian, above 100 µM. In addition, the TGI with OVCAR-5 ovarian, in the test on HOP-62 NSCLC, with SF-268 CNS and in the test with A498 renal was above 100 µM throughout.
In the case of `CCN(CC)c1ccc(C(=O)c2ccccc2C(=O)O)c(O)c1`, the TGI with SN12C renal, with HCT-15 colon, in the test with U251 CNS, with SK-OV-3 ovarian, in the test on SK-MEL-5 melanoma and with OVCAR-3 ovarian was above 100 µM in each case. The TGI with OVCAR-5 ovarian, with HOP-62 NSCLC, in the test with SF-268 CNS and in the test with A498 renal was above 100 µM throughout.
On to `CCOC(=O)c1cc(NS(=O)(=O)c2ccccc2)cc(C(=O)OCC)c1`, for which the GI50 in the test with SN12C renal, in the test on HCT-15 colon, in the test on U251 CNS, in the test with SK-OV-3 ovarian, in the test on SK-MEL-5 melanoma and in the test with OVCAR-3 ovarian was above 100 µM in each case. Moreover, the GI50 with OVCAR-5 ovarian, in the test on HOP-62 NSCLC, in the test on SF-268 CNS and in the test with A498 renal was above 100 µM in each case. Further, the TGI with SN12C renal, with HCT-15 colon, in the test with U251 CNS, in the test on SK-OV-3 ovarian, in the test on SK-MEL-5 melanoma and with OVCAR-3 ovarian was above 100 µM throughout. For the same molecule, the TGI in the test on OVCAR-5 ovarian, with HOP-62 NSCLC, in the test on SF-268 CNS and in the test on A498 renal was above 100 µM each time.
Take `O=C1c2cccnc2C(=O)c2nc3cc(N4CCN(C5CC5)CC4)ccc3nc21`: the GI50 is 0.519 µM with SN12C renal; 0.257 µM with HCT-15 colon; 0.383 µM with U251 CNS; 0.648 µM in the test with SK-OV-3 ovarian; 0.252 µM with SK-MEL-5 melanoma; 1.24 µM with OVCAR-3 ovarian. The GI50 was 1.34 µM with OVCAR-5 ovarian, 0.232 µM in the test on HOP-62 NSCLC, 1.24 µM in the test with SF-268 CNS and 1.34 µM in the test on A498 renal. In addition, the TGI in the test on SN12C renal is 1.88 µM; in the test on HCT-15 colon, 1.28 µM; with U251 CNS it was 2.02 µM; with SK-OV-3 ovarian it was 2.89 µM; with SK-MEL-5 melanoma, 0.686 µM; with OVCAR-3 ovarian, 3.67 µM. Besides, the TGI with OVCAR-5 ovarian turned out to be 3.07 µM; in the test on HOP-62 NSCLC, 1.05 µM; in the test on SF-268 CNS, 4.93 µM; with A498 renal, 2.91 µM.
In the case of `C=CCOc1cccc(/C=C2\SC(=Nc3ccc(O)cc3)NC2=O)c1`, the GI50 with SN12C renal is 0.953 µM; in the test on HCT-15 colon, 0.358 µM; in the test with U251 CNS it was 0.495 µM; with SK-OV-3 ovarian it was 1.66 µM; with SK-MEL-5 melanoma it was 0.555 µM; in the test with OVCAR-3 ovarian, 0.284 µM. The GI50 is 2.32 µM with OVCAR-5 ovarian, 0.66 µM in the test on HOP-62 NSCLC, 1.44 µM in the test on SF-268 CNS and 0.79 µM in the test on A498 renal. Moreover, the TGI in the test on SN12C renal is 10.1 µM; with HCT-15 colon, above 100 µM; in the test with U251 CNS, 12.9 µM; in the test with SK-OV-3 ovarian, 15.7 µM; in the test with SK-MEL-5 melanoma, 2.44 µM; with OVCAR-3 ovarian, 3.15 µM. The TGI in the test on OVCAR-5 ovarian was 24.9 µM; in the test on HOP-62 NSCLC it was 13.1 µM; in the test on SF-268 CNS it was above 22.6 µM; with A498 renal it was 3.77 µM.
For `COc1ccc(-c2c3c(N)nc(-c4ccncc4)nc3nc3c2c(C)nn3-c2ccccc2)cc1`, the GI50 is 44.4 µM with SN12C renal; above 100 µM with HCT-15 colon; 3.6 µM in the test on U251 CNS; 5.25 µM in the test with SK-OV-3 ovarian; 6.79 µM in the test on SK-MEL-5 melanoma; 3.89 µM in the test on OVCAR-3 ovarian. Moreover, the GI50 in the test on OVCAR-5 ovarian was 4.03 µM; with HOP-62 NSCLC, 2.41 µM; with SF-268 CNS, 7.93 µM; in the test with A498 renal, 12.3 µM. Further, the TGI is above 100 µM in the test on SN12C renal; above 100 µM with HCT-15 colon; 19 µM in the test on U251 CNS; 54 µM in the test on SK-OV-3 ovarian; above 100 µM in the test with SK-MEL-5 melanoma; 16 µM in the test on OVCAR-3 ovarian. The TGI is above 100 µM with OVCAR-5 ovarian, 37.6 µM in the test with HOP-62 NSCLC, above 100 µM in the test on SF-268 CNS and above 100 µM in the test with A498 renal.

Source of the values: PubChem BioAssay (NCI).
